Experiments:
[1] = Acute in vivo food intake test in mice; settings: 24h food intake, male or female C57BI/6 mice, high caloric diet, oral gavage 100 mg/kg/day in two half doses
Procedure: 2. Acute in vivo food intake test in mice
The studies were carried out in male or female C57BI/6 mice (n=8-12 per group). The mice were kept on an inverted 12/12h light/dark cycle (lights on 22:00). They were allowed food (high caloric diet) and water ad libitum. Food intake and water consumption was measured daily. The test compound of general Formula I was suspended in 1% methylcellulose in water and 2% (v/v) of Poloxamer 188 (Lutrol F68®) and administered by oral gavage at a dose of 100 mg/kg/day. One half of the dose was administered at 7.00-9.00 h; the remaining half of the dose was administered between 15.00-15.30 h.
In the test model described above, the test substances caused a decrease of the animals' 24h food intake to the percentages of food intake when compared to control as given in Table 2 below. Table 2: Influence of test substances on food intake

[2] = target: T1, human carbonic anhydrase isoenzyme II (hCA II) (Homo sapiens, UniProt P00918); test: biochemical; type: binding; settings: hCA II from erythrocytes 10^-7 M/L, dansylamide 2.25x10^-6, pH 7.4, 60 min preincubation, read at 60 min at 37°C, single measurements
T1 construct: human carbonic anhydrase isoenzyme II from erythrocytes (Sigma-Aldrich); purchased Sigma-Aldrich; host or cells: human erythrocytes (natural source)
Procedure: 1. In vitro inhibition of human carbonic anhydrase isoenzyme II (hCA II)
The test compounds of general Formula I in 96 well microplates were diluted with aqua bidest by using an automatic pipettor (CyBiWell®). From the different dilution plates, aliquots of 20 µl were transferred to the 96 well black assay plates with a pipetting station (Tecan Genesis®). In a second step, 148 µl of potassium phosphate buffer (20 mM, pH 7.4) was added, and as a third step, 20 µl of enzyme solution (1 µM human carbonic anhydrase isoenzyme II from erythrocytes (Sigma-Aldrich), dissolved in potassium phosphate buffer) incubated for 60 min at room temperature and the fluorescence signal (Tecan Ultra® fluorescence reader; excitation wavelength: 280 nm; emission wavelength: 465 nm) read at the end of the preincubation period (FLU-1). After the preincubation time, 20 µl of aqueous dansylamide solution (1 mM dansylamide (Sigma-Aldrich), dissolved in hydrochloric acid) were added and the fluorescence signal read every 10 min for a period of 60 min at 37°C. For calculation, the fluorescence data of the time point 60 min (FLU-2) were used. The total volume of assay mixture amounted to 208 µl. […] Data were expressed as % inhibition after calculation by the formula: % inhibition = 100((1-(FLU-2_cpd-FLU-2_blank-FLU-1_cpd+FLU-1_blank)/(FLU-2_control-FLU-2_blank-FLU-1_control-FLU-1_blank)) [formula] […]

Row | SMILES | food intake [1] | IC50 [2]
1 | NS(=O)(=O)N1CCC2(CC1)CC(=O)c1ccccc1O2 [Example 1] | 83 % of control | 
2 | NS(=O)(=O)N1CCC2(CC1)CC(=O)c1cc(Br)ccc1O2 [Example 2] |  | 6.6 µM
